Legend:
Assay in all cases: relative viability (nuclei count vs DMSO), 5 days (fraction); higher = more cells survive
AZD6482 + OSI-027 = compound: Cc1cc([C@@H](C)Nc2ccccc2C(=O)O)c2nc(N3CCOCC3)cc(=O)n2c1 [AZD6482] + COc1cccc2cc(-c3nc([C@H]4CC[C@H](C(=O)O)CC4)n4ncnc(N)c34)[nH]c12 [OSI-027] (partner 0.5 µM)
Procedure, shortened: (§1)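 A single step with final 0.05% Triton X-100, 1% formaldehyde and 1 ug/ml Hoechst fixed the cells and stained nuclei 5 days after treatment. Lung cancer cell lines in 1536-well plates had been treated by pin tool the day after seeding with one drug alone or a fixed anchor-drug dose plus five library-drug doses (not always all listed) in √10 steps, and nuclei were counted on 4× images. Relative viability is the ratio of nuclei in treated wells to nuclei in vehicle wells, taken as the median of duplicate plates.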

AZD6482 + Olaparib = compound: Cc1cc([C@@H](C)Nc2ccccc2C(=O)O)c2nc(N3CCOCC3)cc(=O)n2c1 [AZD6482] + O=C(c1cc(Cc2n[nH]c(=O)c3ccccc23)ccc1F)N1CCN(C(=O)C2CC2)CC1 [Olaparib] (partner 8 µM)
Procedure, shortened: as §1

AZD6482 + Decitabine = compound: Cc1cc([C@@H](C)Nc2ccccc2C(=O)O)c2nc(N3CCOCC3)cc(=O)n2c1 [AZD6482] + Nc1ncn([C@H]2C[C@H](O)[C@@H](CO)O2)c(=O)n1 [Decitabine] (partner 2 µM)
Procedure, shortened: as §1

[1] = compound: COc1cc2nc(N3CCCN(C)CC3)nc(NC3CCN(Cc4ccccc4)CC3)c2cc1OC + Nc1nc2[nH]cc(CCc3ccc(C(=O)N[C@@H](CCC(=O)O)C(=O)O)cc3)c2c(=O)[nH]1 [Pemetrexed] (partner 0.2 µM)
Procedure, shortened: as §1

Cell Line	relative viability (AZD6482 + OSI-027; first compound 0.08 µM)	relative viability (AZD6482 + OSI-027; first compound 0.253 µM)	relative viability (AZD6482 + OSI-027; first compound 0.8 µM)	relative viability (AZD6482 + OSI-027; first compound 2.53 µM)	relative viability (AZD6482 + OSI-027; first compound 8 µM)	relative viability (AZD6482 + Olaparib; first compound 0.08 µM)	relative viability (AZD6482 + Olaparib; first compound 0.253 µM)	relative viability (AZD6482 + Olaparib; first compound 0.8 µM)	relative viability (AZD6482 + Olaparib; first compound 2.53 µM)	relative viability (AZD6482 + Olaparib; first compound 8 µM)	relative viability (AZD6482 + Decitabine; first compound 0.08 µM)	relative viability (AZD6482 + Decitabine; first compound 0.253 µM)	relative viability (AZD6482 + Decitabine; first compound 0.8 µM)	relative viability (AZD6482 + Decitabine; first compound 2.53 µM)	relative viability (AZD6482 + Decitabine; first compound 8 µM)	relative viability ([1]; first compound 0.2 µM)	relative viability ([1]; first compound 0.6325 µM)	relative viability ([1]; first compound 2 µM)	relative viability ([1]; first compound 6.325 µM)
HCC-44	0.46	0.511	0.574	0.37	0.296	1	1.11	1.1	1.15	1.08	0.895	0.937	0.978	1	0.859	0.67	0.636	0.611	0.646
HCC-827	0.709	0.658	0.8	0.451	0.48	0.653	0.594	0.515	0.432	0.996	0.341	0.301	0.342	0.267	0.264	0.259	0.277	0.215	0.235
NCI-H1623	0.392	0.404	0.432	0.388	0.397	–	–	–	–	–	–	–	–	–	–	–	–	–	–
NCI-H2347	0.222	0.268	0.317	0.194	0.223	0.449	0.536	0.496	0.432	0.432	0.474	0.565	0.555	0.52	0.449	0.394	0.4	0.494	0.538
PC-14	0.723	1.04	0.841	0.658	0.954	0.247	0.337	0.405	0.308	0.36	0.225	0.174	0.273	0.315	0.271	0.133	0.153	0.118	0.0737
NCI-H1651	0.601	0.59	0.655	0.567	0.539	0.174	0.198	0.197	0.201	0.187	0.627	0.429	0.572	0.446	0.482	0.623	0.598	0.597	0.624
HARA	0.318	0.528	0.633	0.249	0.376	0.685	1.01	0.943	0.683	0.519	0.495	0.511	0.455	0.43	0.602	0.258	0.227	0.227	0.269
NCI-H1650	0.536	0.636	0.569	0.347	0.447	0.652	0.761	0.643	0.736	0.813	0.381	0.571	0.544	0.584	0.474	0.389	0.407	0.441	0.313
NCI-H1395	0.519	0.433	0.553	0.393	0.44	0.406	0.429	0.501	0.388	0.32	0.584	0.601	0.636	0.496	0.489	0.892	0.84	0.824	0.635
